US20240217978A1 (CHONG KUN DANG PHARMACEUTICAL CORP., priority 2021, published 2024)

Molecular target: human adenosine A2a receptor (Homo sapiens (Human), UniProt P29274)
Experiment: A2a receptor binding affinity, [3H]-NECA radioligand binding test
Settings: [3H]-NECA 37 nM; membrane from HEK-293 cells transfected with human adenosine A2a receptor
Method in brief: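 Membranes from HEK-293 cells expressing human A2a receptor were incubated with [3H]-NECA (final 37 nM) and compound for 1 h at room temperature in 50 mM Tris, 10 mM MgCl2, 1 mM EDTA, pH 7.4. Bound ligand was filtered on PEI-coated plates and counted by scintillation to derive IC50 (μM).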

Chain of human adenosine A2a receptor (P29274 whole entry): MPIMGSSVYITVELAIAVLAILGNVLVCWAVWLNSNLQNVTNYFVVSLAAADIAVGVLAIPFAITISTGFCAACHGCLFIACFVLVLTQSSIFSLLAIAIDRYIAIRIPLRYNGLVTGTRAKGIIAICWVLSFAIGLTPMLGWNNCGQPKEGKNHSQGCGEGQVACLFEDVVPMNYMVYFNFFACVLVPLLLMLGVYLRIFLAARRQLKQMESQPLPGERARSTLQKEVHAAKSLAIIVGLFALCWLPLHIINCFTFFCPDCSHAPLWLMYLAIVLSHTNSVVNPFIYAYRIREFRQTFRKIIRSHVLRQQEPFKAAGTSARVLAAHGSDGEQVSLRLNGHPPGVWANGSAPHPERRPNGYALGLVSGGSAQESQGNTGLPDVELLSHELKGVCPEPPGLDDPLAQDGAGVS

SMILES	IC50 [µM]
COCCN1CCN(C(=O)[C@@H]2CCN2c2nc(N)n3nc(-c4ccco4)nc3n2)CC1 [Example 107, (S)-(1-(7-amino-2-(furan-2-yl)-[1,2,4]triazolo[1,5-a][1,3,5]triazin-5-yl)azetidin-2-yl)(4-(2-methoxyethyl)piperazin-1-yl) methanone]	0.009
CCCCN1CCN(C(=O)[C@@H](Nc2nc(N)n3nc(-c4ccco4)nc3n2)c2ccccc2)CC1 [Example 190, (S)-2-((7-amino-2-(furan-2-yl)-[1,2,4]triazolo[1,5-a][1,3,5]triazin-5-yl)amino)-1-(4-butylpiperazin-1-yl)-2-phenylethan-1-one]	0.008
Nc1nc(N2CCC[C@H]2C(=O)N2CCN(C(=O)NC3CCCCC3)CC2)nc2nc(-c3ccco3)nn12 [Example 117, 4-((7-amino-2-(furan-2-yl)-[1,2,4]triazolo[1,5-a][1,3,5]triazin-5-yl)-L-prolyl)-N-cyclohexylpiperazin-1-carboxamide]	0.011
CC(C)(O)CC(=O)N1CCC(C2CCN(C(=O)[C@@H]3CCN3c3nc(N)n4nc(-c5ccco5)nc4n3)CC2)CC1 [Example 327, (S)-1-(1′-(1-(7-amino-2-(furan-2-yl)-[1,2,4]triazolo[1,5-a][1,3,5]triazin-5-yl)azetidine-2-carbonyl)-[4,4′-bipiperidin]-1-yl)-3-hydroxy-3-methylbutan-1-one]	0.011
COc1ccccc1N1CCN(C(=O)[C@@H]2CCCN2c2nc(N)n3nc(-c4ccco4)nc3n2)CC1 [Example 122, (S)-(1-(7-amino-2-(furan-2-yl)-[1,2,4]triazolo[1,5-a][1,3,5]triazin-5-yl)pyrrolidin-2-yl)(4-(2-methoxyphenyl)piperazin-1-yl)methanone]	0.019
COC[C@H](Nc1nc(N)n2nc(-c3ccco3)nc2n1)C(=O)N1CCN(CC(C)(F)F)CC1 [Example 397, (S)-2-((7-amino-2-(furan-2-yl)-[1,2,4]triazolo[1,5-a][1,3,5]triazin-5-yl)amino)-1-(4-(2,2-difluoropropyl)piperazin-1-yl)-3-methoxypropan-1-one]	0.012
Nc1nc(N2CCC[C@H]2C(=O)N2CCN(CC3(C(F)(F)F)CCCCC3)CC2)nc2nc(-c3ccco3)nn12 [Example 286]	0.002
C[C@H](Nc1nc(N)n2nc(-c3ccco3)nc2n1)C(=O)N1CCN(Cc2ccccc2F)CC1 [Example 22, (S)-2-((7-amino-2-(furan-2-yl)-[1,2,4]triazolo[1,5-a][1,3,5]triazin-5-yl)amino)-1-(4-(2-fluorobenzyl)piperazin-1-yl)propan-1-one]	0.011
Nc1nc(N[C@H](C(=O)N2CCN(c3ccc(F)cc3F)CC2)c2ccccc2)nc2nc(-c3ccco3)nn12 [Example 7, (S)-2-((7-amino-2-(furan-2-yl)-[1,2,4]triazolo[1,5-a][1,3,5]triazin-5-yl)amino)-1-(4-(2,4-difluorophenyl)piperazin-1-yl)-2-phenylethan-1-one]	0.00672
Nc1nc(N2CCC[C@H]2C(=O)N2CCN(C3CCCCC3)CC2)nc2nc(-c3ccco3)nn12 [Example 54]	0.006
C[C@H](Nc1nc(N)n2nc(-c3ccco3)nc2n1)C(=O)N1CCN(Cc2ccc(F)cc2)CC1 [Example 23, (S)-2-((7-amino-2-(furan-2-yl)-[1,2,4]triazolo[1,5-a][1,3,5]triazin-5-yl)amino)-1-(4-(4-fluorobenzyl)piperazin-1-yl)propan-1-one]	0.061
Cc1ccc(-c2nc3nc(N4CCC[C@H]4C(=O)N4CCN(CC(F)F)CC4)nc(N)n3n2)o1 [Example 297, (S)-(1-(7-amino-2-(5-methylfuran-2-yl)-[1,2,4]triazolo[1,5-a][1,3,5]triazin-5-yl)pyrrolidin-2-yl)(4-(2,2-difluoroethyl)piperazin-1-yl)methanone]	0.015
Nc1nc(N2CCC[C@H]2C(=O)N2CCN(CC(F)F)CC2)nc2sc(-c3ccco3)nc12 [Example 258, (S)-(1-(7-amino-2-(furan-2-yl)thiazolo[5,4-d]pyrimidin-5-yl)pyrrolidin-2-yl)(4-(2,2-difluoroethyl)piperazin-1-yl)methanone]	0.008

The remaining molecules from weak to strong by IC50, led by results:

IC50 [µM]	SMILES
0.068	Nc1nc(N2CCC[C@H]2C(=O)N2CCN(S(=O)(=O)C3CC3)CC2)nc2nc(-c3ccco3)nn12 [Example 69, (S)-(1-(7-amino-2-(furan-2-yl)-[1,2,4]triazolo[1,5-a][1,3,5]triazin-5-yl)pyrrolidin-2-yl)(4-(cyclopropylsulfonyl)piperazin-1-yl)methanone]
0.044	CCCCN1CCC(C2CCN(C(=O)[C@@H]3CCCN3c3nc(N)n4nc(-c5ccco5)nc4n3)CC2)CC1 [Example 265, (S)-(1-(7-amino-2-(furan-2-yl)-[1,2,4]triazolo[1,5-a][1,3,5]triazin-5-yl)pyrrolidin-2-yl)(1′-butyl-[4,4′-bipiperidin]-1-yl)methanone]
0.024	CCCN1CCN(C(=O)[C@@H]2CCCN2c2nc(N)n3nc(-c4ccco4)nc3n2)CC1 [Example 135, (S)-(1-(7-amino-2-(furan-2-yl)-[1,2,4]triazolo[1,5-a][1,3,5]triazin-5-yl)pyrrolidin-2-yl)(4-propylpiperazin-1-yl)methanone]
0.019	CCC1CCC(N2CCN(C(=O)[C@@H]3CCCN3c3nc(N)n4nc(-c5ccco5)nc4n3)CC2)CC1 (stereo partly drawn) [Example 152, (S)-(1-(7-amino-2-(furan-2-yl)-[1,2,4]triazolo[1,5-a][1,3,5]triazin-5-yl)pyrrolidin-2-yl)(4-(4-ethylcyclohexyl)piperazin-1-yl) methanone]
0.017	Nc1nc(N2CCC[C@H]2C(=O)N2CCC(CN3CC(F)C3)CC2)nc2nc(-c3ccco3)nn12 [Example 406, (S)-(1-(7-amino-2-(furan-2-yl)-[1,2,4]triazolo[1,5-a][1,3,5]triazin-5-yl)pyrrolidin-2-yl)(4-((3-fluoroazetidin-1-yl)methyl)piperidin-1-yl)methanone]
0.014	Nc1nc(N2CCCC[C@H]2C(=O)N2CCN(CC(F)(F)C(F)F)CC2)nc2nc(-c3ccco3)nn12 [Example 279, (S)-(1-(7-amino-2-(furan-2-yl)-[1,2,4]triazolo[1,5-a][1,3,5]triazin-5-yl)piperidin-2-y1)(4-(2,2,3,3-tetrafluoropropyl)piperazin-1-yl)methanone]
0.012	CCC[C@H](Nc1nc(N)n2nc(-c3ccco3)nc2n1)C(=O)N1CCN(CC(F)(F)F)CC1 [Example 212, (S)-2-((7-amino-2-(furan-2-yl)-[1,2,4]triazolo[1,5-a][1,3,5]triazin-5-yl)amino)-1-(4-(2,2,2-trifluoroethyl)piperazin-1-yl)pentan-1-one]
0.011	COC[C@H](Nc1nc(N)n2nc(-c3ccco3)nc2n1)C(=O)N1CCN(c2ncccn2)CC1 [Example 304, (S)-2-((7-amino-2-(furan-2-yl)-[1,2,4]triazolo[1,5-a][1,3,5]triazin-5-yl)amino)-3-methoxy-1-(4-(pyrimidin-2-yl)piperazin-1-yl)propan-1-one]
0.009	Nc1nc(N2CCC[C@H]2C(=O)N2CCN(c3cnccn3)CC2)nc2nc(-c3ccco3)nn12 [Example 126, (S)-(1-(7-amino-2-(furan-2-yl)-[1,2,4]triazolo[1,5-a][1,3,5]triazin-5-yl)pyrrolidin-2-yl)(4-(pyrazin-2-yl)piperazin-1-yl)methanone]
0.009	Nc1nc(N2CCC[C@H]2C(=O)N2CCN(CC(F)(F)C(F)(F)F)CC2)nc2nc(-c3ccco3)nn12 [Example 227, (S)-(1-(7-amino-2-(furan-2-yl)-[1,2,4]triazolo[1,5-a][1,3,5]triazin-5-yl)pyrrolidin-2-yl)(4-(2,2,3,3,3-pentafluoropropyl)piperazin-1-yl)methanone]
0.008	CCCCN1CCN(C(=O)[C@@H]2CCN2c2nc(N)n3nc(-c4ccco4)nc3n2)CC1 [Example 111, (S)-(1-(7-amino-2-(furan-2-yl)-[1,2,4]triazolo[1,5-a][1,3,5]triazin-5-yl)azetidin-2-yl)(4-butylpiperazin-1-yl)methanone]
0.006	CCCCN1CCN(C(=O)[C@H](Cc2ccccc2)Nc2nc(N)n3nc(-c4ccco4)nc3n2)CC1 [Example 191, (S)-2-((7-amino-2-(furan-2-yl)-[1,2,4]triazolo[1,5-a][1,3,5]triazin-5-yl)amino)-1-(4-butylpiperazin-1-yl)-3-phenylpropan-1-one]
0.006	CC(C)(F)CN1CCN(C(=O)[C@@H]2CCCN2c2cc3nc(-c4ccco4)nn3c(N)n2)CC1 [Example 352, (S)-(1-(5-amino-2-(furan-2-yl)-[1,2,4]triazolo[1,5-c]pyrimidin-7-yl)pyrrolidin-2-yl)(4-(2-fluoro-2-methylpropyl)piperazin-1-yl)methanone]
0.006	COC[C@H](Nc1nc(N)n2nc(-c3ccco3)nc2n1)C(=O)N1CCN(CC(C)(C)F)CC1 [Example 303, (S)-2-((7-amino-2-(furan-2-yl)-[1,2,4]triazolo[1,5-a][1,3,5]triazin-5-yl)amino)-1-(4-(2-fluoro-2-methylpropyl)piperazin-1-yl)-3-methoxypropan-1-one]
0.005	CC(F)(F)CN1CCC(C2CCN(C(=O)[C@@H]3CCN3c3nc(N)n4nc(-c5ccco5)nc4n3)CC2)CC1 [Example 324, (S)-(1-(7-amino-2-(furan-2-yl)-[1,2,4]triazolo[1,5-a][1,3,5]triazin-5-yl)azetidin-2-yl)(1′-(2,2-difluoropropyl)-[4,4′-bipiperidin]-1-yl)methanone]
0.005	COC[C@H](Nc1nc(N)n2nc(-c3ccco3)nc2n1)C(=O)N1CCN(CC(C)(C)O)CC1 [Example 399, (S)-2-((7-amino-2-(furan-2-yl)-[1,2,4]triazolo[1,5-a][1,3,5]triazin-5-yl)amino)-1-(4-(2-hydroxy-2-methylpropyl)piperazin-1-yl)-3-methoxypropan-1-one]
0.0007	Nc1nc(N2CC[C@H]2C(=O)N2CCC(C3CCN(CC(F)F)CC3)CC2)cc2nc(-c3ccco3)nn12 [Example 378, (S)-(1-(5-amino-2-(furan-2-yl)-[1,2,4]triazolo[1,5-c]pyrimidin-7-yl)azetidin-2-yl)(1′-(2,2-difluoroethyl)-[4,4′-bipiperidin]-1-yl)methanone]
